The values below come from paper PMC2674504, “Foam nest components of the túngara frog: a cocktail of proteins conferring physical and biological resilience” (Proceedings of the Royal Society B: Biological Sciences, 2009).

For assay [1], the target named is T1, papain (Carica papaya, UniProt P00784).
T1 construct: commercial enzyme from papaya latex (Sigma)
T1 sequence (P00784 134-345): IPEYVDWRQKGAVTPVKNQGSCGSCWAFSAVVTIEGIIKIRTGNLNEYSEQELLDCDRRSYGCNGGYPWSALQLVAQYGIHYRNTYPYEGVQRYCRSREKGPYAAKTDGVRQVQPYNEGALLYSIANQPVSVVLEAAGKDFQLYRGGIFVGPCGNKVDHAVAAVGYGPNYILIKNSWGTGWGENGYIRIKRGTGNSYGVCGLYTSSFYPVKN
Description: fluorogenic proteolysis assay (ex […] nm, em […] nm). Format: biochemical. The note with it: 0.1 M acetate pH 5.0, 10 mM dithiothreitol, 2 mM EDTA, 30 °C; mere turnover.

Assay [2] has as its target T2, Rsn-4 (Engystomops pustulosus, UniProt B5DCK4).
T2 construct: dimer or higher order
T2 sequence (B5DCK4 20-193): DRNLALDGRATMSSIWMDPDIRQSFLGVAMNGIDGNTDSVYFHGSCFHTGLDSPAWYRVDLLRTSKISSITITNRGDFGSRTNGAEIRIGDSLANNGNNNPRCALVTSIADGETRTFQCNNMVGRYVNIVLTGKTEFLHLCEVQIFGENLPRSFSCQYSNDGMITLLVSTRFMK
Description: haemagglutination inhibition (human erythrocytes). Format: cell-based. The note with it: 20 mM sugar; 10 mM HEPES, 150 mM NaCl, 2 mM CaCl2; room temperature; protein refolded in buffer with 20 mM galactose.

In assay [3] the target is T2, Rsn-4. Briefly: haemagglutination inhibition (human erythrocytes); lactose-agarose affinity chromatography eluted with […] lactose. The note with it: 20 mM sugar; 10 mM HEPES, 150 mM NaCl, 2 mM CaCl2; room temperature. Format: binding.

Where a SMILES comes first, the peptide text is derived from it. The star is where a group is joined. AMC = Cc1cc(=O)oc2cc(N*)ccc12; Cbz = O=C(OCc1ccccc1)*

Consider `Cc1cc(=O)oc2cc(NC(=O)[C@H](CCCNC(=N)N)NC(=O)[C@H](Cc3ccccc3)NC(=O)OCc3ccccc3)ccc12` [Z-Phe-Arg 7-amido-4-methylcoumarin] (Cbz-Phe-Arg-{AMC}), for which, in assay [1], the “fluorogenic proteolysis assay (ex 370 nm, em 470 nm)” value is given as “papain) was investigated using fluorogenic or chromogenic substrates, Z-Phe-Arg 7-amido-4-methylcoumarin”.

For `OC[C@H]1OC(O)[C@H](O)[C@@H](O)[C@H]1O` (stereo partly drawn) [galactose], the “haemagglutination inhibition (human erythrocytes)” value in assay [2] is “agglutination by Rsn-4 was unaffected by fucose but completely inhibited by galactose”.

Turning to `OC[C@H]1O[C@@H](O[C@H]2[C@H](O)[C@@H](O)C(O)O[C@@H]2CO)[C@H](O)[C@@H](O)[C@H]1O` (stereo partly drawn) [lactose], the “haemagglutination inhibition (human erythrocytes); lactose-agarose affinity chro” value in assay [3] was “Rsn-4 could be inhibited with lactose and galactose”.
